From PubChem BioAssay (NCI)
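48-hour exposure; five concentrations; linearly interpolated endpoints. GI50: concentration for 50% inhibition of growth. TGI marks complete inhibition of growth.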

Legend:
Assay in all cases: NCI tumour cell line growth inhibition, 48 h
IGROV1 ovarian = tested on: IGROV1 ovarian
NCI-H460 lung = tested on: NCI-H460 lung
PC-3 prostate = tested on: PC-3 prostate
SK-OV-3 ovarian = tested on: SK-OV-3 ovarian
MDA-MB-231 breast = tested on: MDA-MB-231 breast
MDA-MB-435 = tested on: MDA-MB-435
UACC-257 melanoma = tested on: UACC-257 melanoma
SNB-19 CNS = tested on: SNB-19 CNS
T-47D breast = tested on: T-47D breast
HT29 colon = tested on: HT29 colon
ACHN renal = tested on: ACHN renal
SW-620 colon = tested on: SW-620 colon
A498 renal = tested on: A498 renal
SNB-75 CNS = tested on: SNB-75 CNS
MOLT-4 leukemia = tested on: MOLT-4 leukemia
OVCAR-8 ovarian = tested on: OVCAR-8 ovarian
SK-MEL-5 melanoma = tested on: SK-MEL-5 melanoma
NCI/ADR-RES ovarian = tested on: NCI/ADR-RES ovarian
HCT-116 colon = tested on: HCT-116 colon
CAKI-1 renal = tested on: CAKI-1 renal
COLO 205 colon = tested on: COLO 205 colon
UACC-62 melanoma = tested on: UACC-62 melanoma
OVCAR-5 ovarian = tested on: OVCAR-5 ovarian
SF-539 CNS = tested on: SF-539 CNS
TK-10 renal = tested on: TK-10 renal
HCC-2998 colon = tested on: HCC-2998 colon
MCF7 breast = tested on: MCF7 breast
OVCAR-4 ovarian = tested on: OVCAR-4 ovarian
786-0 renal = tested on: 786-0 renal
UO-31 renal = tested on: UO-31 renal
KM12 colon = tested on: KM12 colon
SF-295 CNS = tested on: SF-295 CNS
MALME-3M melanoma = tested on: MALME-3M melanoma
RPMI-8226 leukemia = tested on: RPMI-8226 leukemia
K-562 leukemia = tested on: K-562 leukemia
DU-145 prostate = tested on: DU-145 prostate
RXF 393 renal = tested on: RXF 393 renal
EKVX NSCLC = tested on: EKVX NSCLC
NCI-H522 lung = tested on: NCI-H522 lung
HOP-62 NSCLC = tested on: HOP-62 NSCLC
LOX IMVI melanoma = tested on: LOX IMVI melanoma
SN12C renal = tested on: SN12C renal
M14 melanoma = tested on: M14 melanoma
U251 CNS = tested on: U251 CNS
SF-268 CNS = tested on: SF-268 CNS
HCT-15 colon = tested on: HCT-15 colon
BT-549 breast = tested on: BT-549 breast
NCI-H23 lung = tested on: NCI-H23 lung
SK-MEL-28 melanoma = tested on: SK-MEL-28 melanoma
NCI-H226 lung = tested on: NCI-H226 lung
A549 NSCLC = tested on: A549 NSCLC
HS 578T breast = tested on: HS 578T breast
OVCAR-3 ovarian = tested on: OVCAR-3 ovarian
HOP-92 NSCLC = tested on: HOP-92 NSCLC
CCRF-CEM leukemia = tested on: CCRF-CEM leukemia

Which GI50 (IGROV1 ovarian) does the source give for `Cc1ccc(C(C)C)cc1NC(=O)Nc1ccc([N+](=O)[O-])cc1` here?
The GI50 was 1.38 µM.

What about the TGI (IGROV1 ovarian) of the same compound?
The TGI was 4.79 µM.

And the GI50 (NCI-H460 lung)?
The GI50 was 2.21 µM.

And the TGI (NCI-H460 lung)?
The TGI was 5.34 µM.

What about the GI50 (PC-3 prostate) of the same compound?
The GI50 was 2.75 µM.

And the TGI (PC-3 prostate)?
Its TGI is 12.2 µM.

And the GI50 (SK-OV-3 ovarian)?
The GI50 was 2.17 µM.

And the TGI (SK-OV-3 ovarian)?
The TGI was 5.97 µM.

And the GI50 (MDA-MB-231 breast)?
Its GI50 is 1.52 µM.

What about the TGI (MDA-MB-231 breast) of the same compound?
Its TGI is 3.65 µM.

And the GI50 (MDA-MB-435)?
The GI50 was 2.19 µM.

What about the TGI (MDA-MB-435) of the same compound?
Its TGI is 6.5 µM.

What about the GI50 (UACC-257 melanoma) of the same compound?
The GI50 was 2.41 µM.

And the TGI (UACC-257 melanoma)?
Its TGI is 7.71 µM.

What about the GI50 (SNB-19 CNS) of the same compound?
Its GI50 is 2.99 µM.

And the TGI (SNB-19 CNS)?
Its TGI is 12 µM.

What about the GI50 (T-47D breast) of the same compound?
The GI50 was 1.99 µM.

And the TGI (T-47D breast)?
Its TGI is 7.36 µM.

And the GI50 (HT29 colon)?
The GI50 was 3.2 µM.

And the TGI (HT29 colon)?
Its TGI is 10.2 µM.

And the GI50 (ACHN renal)?
Its GI50 is 2.56 µM.

And the TGI (ACHN renal)?
Its TGI is 7.82 µM.

What about the GI50 (SW-620 colon) of the same compound?
Its GI50 is 2.89 µM.

What about the TGI (SW-620 colon) of the same compound?
The TGI was 10.7 µM.

What about the GI50 (A498 renal) of the same compound?
Its GI50 is 1.19 µM.

And the TGI (A498 renal)?
Its TGI is 4.45 µM.

And the GI50 (SNB-75 CNS)?
Its GI50 is 2.52 µM.

And the TGI (SNB-75 CNS)?
Its TGI is 10.5 µM.

And the GI50 (MOLT-4 leukemia)?
The GI50 was 2.13 µM.

What about the TGI (MOLT-4 leukemia) of the same compound?
Its TGI is 4.63 µM.

And the GI50 (OVCAR-8 ovarian)?
The GI50 was 3.19 µM.

And the TGI (OVCAR-8 ovarian)?
The TGI was 11.6 µM.

What about the GI50 (SK-MEL-5 melanoma) of the same compound?
The GI50 was 1.55 µM.

What about the TGI (SK-MEL-5 melanoma) of the same compound?
Its TGI is 2.9 µM.

And the GI50 (NCI/ADR-RES ovarian)?
Its GI50 is 2.61 µM.

And the TGI (NCI/ADR-RES ovarian)?
The TGI was 7.7 µM.

And the GI50 (HCT-116 colon)?
Its GI50 is 2.45 µM.

What about the TGI (HCT-116 colon) of the same compound?
Its TGI is 7.13 µM.

And the GI50 (CAKI-1 renal)?
Its GI50 is 2.1 µM.

And the TGI (CAKI-1 renal)?
The TGI was 5.62 µM.

What about the GI50 (COLO 205 colon) of the same compound?
Its GI50 is 1.67 µM.

And the TGI (COLO 205 colon)?
The TGI was 3.03 µM.

What about the GI50 (UACC-62 melanoma) of the same compound?
Its GI50 is 1.81 µM.

What about the TGI (UACC-62 melanoma) of the same compound?
Its TGI is 10.2 µM.

What about the GI50 (OVCAR-5 ovarian) of the same compound?
Its GI50 is 2.92 µM.

What about the TGI (OVCAR-5 ovarian) of the same compound?
Its TGI is 8.99 µM.

What about the GI50 (SF-539 CNS) of the same compound?
Its GI50 is 2.57 µM.

And the TGI (SF-539 CNS)?
Its TGI is 7.89 µM.

What about the GI50 (TK-10 renal) of the same compound?
The GI50 was 2.36 µM.

What about the TGI (TK-10 renal) of the same compound?
The TGI was 9.44 µM.

What about the GI50 (HCC-2998 colon) of the same compound?
Its GI50 is 2.09 µM.

And the TGI (HCC-2998 colon)?
The TGI was 5.44 µM.

What about the GI50 (MCF7 breast) of the same compound?
Its GI50 is 1.95 µM.

And the TGI (MCF7 breast)?
Its TGI is 5.72 µM.

What about the GI50 (OVCAR-4 ovarian) of the same compound?
The GI50 was 3.44 µM.

And the TGI (OVCAR-4 ovarian)?
The TGI was 13 µM.

What about the GI50 (786-0 renal) of the same compound?
Its GI50 is 2.32 µM.

And the TGI (786-0 renal)?
The TGI was 5.29 µM.

What about the GI50 (UO-31 renal) of the same compound?
The GI50 was 1.54 µM.

And the TGI (UO-31 renal)?
Its TGI is 5.79 µM.

What about the GI50 (KM12 colon) of the same compound?
The GI50 was 2.25 µM.

What about the TGI (KM12 colon) of the same compound?
Its TGI is 5.91 µM.

What about the GI50 (SF-295 CNS) of the same compound?
The GI50 was 1.84 µM.

What about the TGI (SF-295 CNS) of the same compound?
Its TGI is 5.11 µM.

What about the GI50 (MALME-3M melanoma) of the same compound?
The GI50 was 2.02 µM.

And the TGI (MALME-3M melanoma)?
Its TGI is 6.48 µM.

What about the GI50 (RPMI-8226 leukemia) of the same compound?
Its GI50 is 1.57 µM.

What about the TGI (RPMI-8226 leukemia) of the same compound?
The TGI was 4.73 µM.

And the GI50 (K-562 leukemia)?
The GI50 was 2.96 µM.

And the TGI (K-562 leukemia)?
Its TGI is 7.74 µM.

And the GI50 (DU-145 prostate)?
The GI50 was 2.49 µM.

What about the TGI (DU-145 prostate) of the same compound?
Its TGI is 12 µM.

And the GI50 (RXF 393 renal)?
The GI50 was 2.81 µM.

And the TGI (RXF 393 renal)?
Its TGI is 13.5 µM.

And the GI50 (EKVX NSCLC)?
Its GI50 is 2.37 µM.

What about the TGI (EKVX NSCLC) of the same compound?
The TGI was 8.01 µM.

What about the GI50 (NCI-H522 lung) of the same compound?
The GI50 was 1.38 µM.

What about the TGI (NCI-H522 lung) of the same compound?
The TGI was 3.97 µM.

And the GI50 (HOP-62 NSCLC)?
Its GI50 is 2.53 µM.

And the TGI (HOP-62 NSCLC)?
Its TGI is 5.92 µM.

And the GI50 (LOX IMVI melanoma)?
The GI50 was 1.99 µM.

What about the TGI (LOX IMVI melanoma) of the same compound?
The TGI was 4.82 µM.

And the GI50 (SN12C renal)?
Its GI50 is 2.28 µM.

And the TGI (SN12C renal)?
Its TGI is 8.97 µM.

And the GI50 (M14 melanoma)?
The GI50 was 2.45 µM.

What about the TGI (M14 melanoma) of the same compound?
Its TGI is 7.28 µM.

And the GI50 (U251 CNS)?
Its GI50 is 2.25 µM.

And the TGI (U251 CNS)?
The TGI was 6.46 µM.

What about the GI50 (SF-268 CNS) of the same compound?
Its GI50 is 2.67 µM.

And the TGI (SF-268 CNS)?
Its TGI is 12.1 µM.

And the GI50 (HCT-15 colon)?
The GI50 was 2.44 µM.

What about the TGI (HCT-15 colon) of the same compound?
The TGI was 8.94 µM.

And the GI50 (BT-549 breast)?
The GI50 was 2.13 µM.

And the TGI (BT-549 breast)?
The TGI was 8.21 µM.

And the GI50 (NCI-H23 lung)?
Its GI50 is 2.49 µM.

And the TGI (NCI-H23 lung)?
Its TGI is 7.97 µM.

And the GI50 (SK-MEL-28 melanoma)?
The GI50 was 2.78 µM.

What about the TGI (SK-MEL-28 melanoma) of the same compound?
The TGI was 10.4 µM.

What about the GI50 (NCI-H226 lung) of the same compound?
Its GI50 is 1.77 µM.

And the TGI (NCI-H226 lung)?
Its TGI is 6.14 µM.

What about the GI50 (A549 NSCLC) of the same compound?
Its GI50 is 2.63 µM.

And the TGI (A549 NSCLC)?
The TGI was 11.1 µM.

What about the GI50 (HS 578T breast) of the same compound?
The GI50 was 1.66 µM.

And the TGI (HS 578T breast)?
The TGI was 5.18 µM.

And the GI50 (OVCAR-3 ovarian)?
The GI50 was 1.77 µM.

What about the TGI (OVCAR-3 ovarian) of the same compound?
Its TGI is 6.28 µM.

And the GI50 (HOP-92 NSCLC)?
The GI50 was 2.42 µM.

And the TGI (HOP-92 NSCLC)?
Its TGI is 8.89 µM.

And the GI50 (CCRF-CEM leukemia)?
Its GI50 is 1.97 µM.

And the TGI (CCRF-CEM leukemia)?
Its TGI is 5.53 µM.
